PubChem BioAssay AID1918942 (Molecular Pharmacology Branch, DTP, NCI, 2023)

Test system: 743489-274-T-PDC complex spheroid viability
Test: Anticancer human tumor 743489-274-T-PDC patient-derived renal cell carcinoma cell line growth inhibition
Details: for IC50: curve of first compound; for viability, T/C: stronger effect = lower value
Summary of the method: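 Multicellular complex spheroids of tumor cells with human endothelial cells (HUVEC) and mesenchymal stem cells; the LSD1 inhibitor iadademstat was combined with standard-of-care or investigational agents. Top concentration at or near clinical Cmax, half-log dilutions; final DMSO ≤0.25%.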

[1] = second compound 0.1 µM, first compound 0.00949 µM
[2] = second compound 0.1 µM, first compound 0.03 µM
[3] = second compound 0.1 µM, first compound 0.0949 µM
[4] = second compound 0.1 µM, first compound 0.3 µM
[5] = second compound 0.1 µM, first compound 0.949 µM
[6] = second compound 0.1 µM, first compound 3 µM
[7] = second compound 0.316 µM, first compound 0.00949 µM
[8] = second compound 0.316 µM, first compound 0.03 µM
[9] = second compound 0.316 µM, first compound 0.0949 µM
[10] = second compound 0.316 µM, first compound 0.3 µM
[11] = second compound 0.316 µM, first compound 0.949 µM
[12] = second compound 0.316 µM, first compound 3 µM
[13] = second compound 1 µM, first compound 0.00949 µM
[14] = second compound 1 µM, first compound 0.03 µM
[15] = second compound 1 µM, first compound 0.0949 µM
[16] = second compound 1 µM, first compound 0.3 µM
[17] = second compound 1 µM, first compound 0.949 µM
[18] = second compound 1 µM, first compound 3 µM
[19] = second compound 3.16 µM, first compound 0.00949 µM
[20] = second compound 3.16 µM, first compound 0.03 µM
[21] = second compound 3.16 µM, first compound 0.0949 µM
[22] = second compound 3.16 µM, first compound 0.3 µM
[23] = second compound 3.16 µM, first compound 0.949 µM
[24] = second compound 3.16 µM, first compound 3 µM
[25] = second compound 10 µM, first compound 0.00949 µM
[26] = second compound 10 µM, first compound 0.03 µM
[27] = second compound 10 µM, first compound 0.0949 µM
[28] = second compound 10 µM, first compound 0.3 µM
[29] = second compound 10 µM, first compound 0.949 µM
[30] = second compound 10 µM, first compound 3 µM
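Further: spheroids exposed to compounds for 7 days before readout.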
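Wherever viability, T/C is given: 100% = DMSO vehicle control wells.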

Row | Structure (SMILES) | IC50 (second compound 0.1 µM) [nM] | IC50 (second compound 0.316 µM) [nM] | IC50 (second compound 1 µM) [nM] | IC50 (second compound 3.16 µM) [nM] | IC50 (second compound 10 µM) [nM] | viability, T/C [1] [%] | viability, T/C [2] [%] | viability, T/C [3] [%] | viability, T/C [4] [%] | viability, T/C [5] [%] | viability, T/C [6] [%] | viability, T/C [7] [%] | viability, T/C [8] [%] | viability, T/C [9] [%] | viability, T/C [10] [%] | viability, T/C [11] [%] | viability, T/C [12] [%] | viability, T/C [13] [%] | viability, T/C [14] [%] | viability, T/C [15] [%] | other results
1 | NS(=O)(=O)OCC1CC(n2ccc3c(NC4CCc5ccccc54)ncnc32)CC1O (stereo not given) + NC1CC1c1ccc(-c2cccc(O)c2)cc1 | > 3000 | > 3000 | > 3000 | > 3000 | > 3000 | 98 | 107 | 127 | 154 | 154 | 134 | 98.3 | 97.4 | 125 | 150 | 134 | 149 | 108 | 111 | 125 | viability, T/C [16]: 152%; viability, T/C [17]: 168%; viability, T/C [18]: 137%; viability, T/C [19]: 96.5%; viability, T/C [20]: 104%; viability, T/C [21]: 122%; viability, T/C [22]: 145%; viability, T/C [23]: 140%; viability, T/C [24]: 130%; viability, T/C [25]: 90%; viability, T/C [26]: 98.6%; viability, T/C [27]: 129%; viability, T/C [28]: 153%; viability, T/C [29]: 150%; viability, T/C [30]: 142%
2 | Nc1ccccc1NC(=O)c1ccc(CNC(=O)OCc2cccnc2)cc1 + NC1CC1c1ccc(-c2cccc(O)c2)cc1 | 678 | 773 | 642 | 1010 | 1320 | 93.2 | 88.5 | 87.5 | 62.6 | 45.8 | 29.2 | 95.7 | 86.8 | 84.5 | 65.8 | 45.5 | 40.3 | 98.6 | 87.5 | 83.4 | viability, T/C [16]: 62.3%; viability, T/C [17]: 43.2%; viability, T/C [18]: 24.6%; viability, T/C [19]: 92.8%; viability, T/C [20]: 84.5%; viability, T/C [21]: 81.6%; viability, T/C [22]: 72.5%; viability, T/C [23]: 49%; viability, T/C [24]: 36.5%; viability, T/C [25]: 95.5%; viability, T/C [26]: 87.5%; viability, T/C [27]: 77.9%; viability, T/C [28]: 70.1%; viability, T/C [29]: 58.4%; viability, T/C [30]: 35.4%
3 | O=C(C=Cc1cccc(S(=O)(=O)Nc2ccccc2)c1)NO + NC1CC1c1ccc(-c2cccc(O)c2)cc1 | 860 | 1010 | 1550 | 915 | 1380 | 107 | 98.5 | 93 | 67.8 | 49.7 | 28.5 | 102 | 93.2 | 88 | 64.9 | 53.1 | 34 | 98.7 | 99.3 | 84.2 | viability, T/C [16]: 84.1%; viability, T/C [17]: 58.8%; viability, T/C [18]: 35.9%; viability, T/C [19]: 98.5%; viability, T/C [20]: 88.1%; viability, T/C [21]: 90.8%; viability, T/C [22]: 69%; viability, T/C [23]: 50.2%; viability, T/C [24]: 24.1%; viability, T/C [25]: 98.9%; viability, T/C [26]: 97%; viability, T/C [27]: 87.8%; viability, T/C [28]: 81.4%; viability, T/C [29]: 56.6%; viability, T/C [30]: 33.9%
